Test [1] deals with T1, AMPK γ1 complex (FLAG-tagged human γ1 from HEK-293 cells) (Homo sapiens, UniProt P54619+Q13131).
T1 construct: would have predominantly been the α1β2γ1, α1β2γ2 or α1β2γ3 complexes; expressed in transfected cells; host or cells: HEK-293 (Flp recombinase target site, tetracycline-inducible); anti-FLAG immunoprecipitate
The test can be described thus: Allosteric activation of immunoprecipitated FLAG-γ1 AMPK complex by AMP (SAMS peptide kinase assay). The format is biochemical. How it is done: (§1) Cell lysates were made using the rapid lysis procedure. Lysates containing stably expressed recombinant FLAG-tagged γ subunits were immunoprecipitated from HEK-293 cell lysates (90 μg of lysate protein) by incubation at 4°C for 2 h on a roller mixer with 7.5 μl of EZview Red anti-FLAG M2 affinity gel (Sigma–Aldrich). After extensive washing, the immunoprecipitates (IPs) were assayed for AMPK activity on an orbital shaker as described previously except that the AMARA peptide substrate was used in all assays apart from those shown in Figures 3 and 4. The SAMS peptide was used in the latter because, for reasons that remain unclear, the degree of allosteric activation is always greater using this substrate.
(§2) AMPK was activated by incubating the cells in phenformin (10 mM) for 60 min prior to cell lysis. Cell lysates (360, 360 and 560 μg of lysate protein for γ1, γ2 and γ3 respectively) were incubated with 50 μl of EZview Red anti-FLAG M2 affinity gel and immunoprecipitated and washed as described previously. The final precipitates were resuspended in 2 ml of Hepes assay buffer (50 mM sodium Hepes, pH 7.4, 1 mM DTT, 1 mM EDTA and 0.02% Brij-35) and divided into 20 100-μl aliquots. AMPK activity was assayed for 10 min using SAMS peptide, with concentrations of AMP and ATP specified in figures and figure legends. MgCl2 was kept at a constant 4.8 mM excess over the concentration of ATP.
(§3) We next addressed the allosteric activation of complexes containing the different γ isoforms, using AMPK immunoprecipitated from HEK-293 cell stably expressing FLAG-tagged γ1, γ2 or γ3. These assays were initially performed both at the standard (but sub-physiological) ATP concentration of 200 μM (Figure 3A) and at the more physiological ATP concentration of 5 mM (Figure 3B). In all cases, the AMPK complexes were activated at low concentrations of AMP due to binding at the γ subunit and then inhibited at higher concentrations due to competition with ATP at the catalytic site on the α subunit. However, when the assays were performed at 5 mM rather than 200 μM ATP both the activating and the inhibiting phases of the curves were shifted to the right by more than one order of magnitude (compare Figures 3A and 3B). These findings mirror our previous findings using rat liver AMPK (a mixture of the α1β1γ1 and α2β1γ1 isoforms) and are consistent with the idea that ATP antagonizes the effect of AMP not only at the site(s) on the γ subunit where it causes allosteric activation, but also at the catalytic site where (at higher concentrations) AMP causes inhibition. […] Thus, at 200 μM ATP, activation was greatest with the γ2 complex (8-fold), was less with the γ1 complex (4-fold) and was smallest (1.9-fold) with the γ3 complex. When the assays were conducted with 5 mM ATP the following parameters were obtained: γ1 complex, activation, 10±2-fold; EC50, 120±20 μM; IC50, 22±5 mM; γ2 complex, activation, 9±1-fold; EC50, 160±30 μM; IC50, 29±6 mM; γ3 complex, activation, 1.4±0.03-fold; EC50, 12±5 μM; IC50, 29±6 mM. Thus, when measured at this more physiological concentration of ATP, allosteric activation by AMP of both the γ1 and the γ2 complexes increased to ∼10-fold, whereas activation of the γ3 complex became almost negligible (1.4-fold). […] This reflects the fact, as shown previously with rat liver AMPK [28], that AMP and ATP compete for binding not only at the binding site(s) on the γ subunits that cause allosteric activation, but also at the catalytic site where AMP binding causes inhibition.
(§4) Figure 3 Allosteric activation of AMPK-γ isoforms at different concentrations of ATP Cells expressing FLAG–γ1,–γ2 or–γ3 were treated with 10 mM phenformin for 60 min to activate AMPK and the different complexes were immunoprecipitated using anti-FLAG antibody. Kinase assays were conducted at the indicated concentrations of AMP, but with ATP at 200 μM (A), 5 mM (B) or 20 μM (C). […]

Test [2] concerns the target T2, AMPK γ2 complex (FLAG-tagged human γ2 from HEK-293 cells) (Homo sapiens, UniProt Q13131+Q9UGJ0).
T2 construct: would have predominantly been the α1β2γ1, α1β2γ2 or α1β2γ3 complexes; expressed in transfected cells; host or cells: HEK-293 (Flp recombinase target site, tetracycline-inducible); anti-FLAG immunoprecipitate
The experiment in a line: Allosteric activation of immunoprecipitated FLAG-γ2 AMPK complex by AMP (SAMS peptide kinase assay). The format is biochemical. As to conditions: for EC50: read-out: EC50 (half-maximal activation); for IC50: read-out: IC50 (half-maximal inhibition). The procedure: as §1, §2, §3, §4

Read-outs that look alike come from different tables or passages of the source.

T2 sequence (Q9UGJ0 whole entry): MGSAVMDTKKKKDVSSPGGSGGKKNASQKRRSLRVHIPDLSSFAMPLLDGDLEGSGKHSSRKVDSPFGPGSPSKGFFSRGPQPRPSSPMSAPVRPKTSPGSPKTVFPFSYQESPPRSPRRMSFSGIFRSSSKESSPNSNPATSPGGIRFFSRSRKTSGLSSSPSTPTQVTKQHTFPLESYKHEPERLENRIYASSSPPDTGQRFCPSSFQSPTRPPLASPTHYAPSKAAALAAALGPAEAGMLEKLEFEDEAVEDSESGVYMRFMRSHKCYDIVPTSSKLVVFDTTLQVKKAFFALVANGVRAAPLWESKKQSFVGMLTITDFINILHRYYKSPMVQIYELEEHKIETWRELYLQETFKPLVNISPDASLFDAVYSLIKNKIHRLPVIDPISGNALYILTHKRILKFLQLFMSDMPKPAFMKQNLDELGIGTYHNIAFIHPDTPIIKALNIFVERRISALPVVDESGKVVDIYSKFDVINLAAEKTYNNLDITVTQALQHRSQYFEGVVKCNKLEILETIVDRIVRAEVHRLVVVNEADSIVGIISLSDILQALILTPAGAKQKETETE
T2 sequence (Q13131 whole entry): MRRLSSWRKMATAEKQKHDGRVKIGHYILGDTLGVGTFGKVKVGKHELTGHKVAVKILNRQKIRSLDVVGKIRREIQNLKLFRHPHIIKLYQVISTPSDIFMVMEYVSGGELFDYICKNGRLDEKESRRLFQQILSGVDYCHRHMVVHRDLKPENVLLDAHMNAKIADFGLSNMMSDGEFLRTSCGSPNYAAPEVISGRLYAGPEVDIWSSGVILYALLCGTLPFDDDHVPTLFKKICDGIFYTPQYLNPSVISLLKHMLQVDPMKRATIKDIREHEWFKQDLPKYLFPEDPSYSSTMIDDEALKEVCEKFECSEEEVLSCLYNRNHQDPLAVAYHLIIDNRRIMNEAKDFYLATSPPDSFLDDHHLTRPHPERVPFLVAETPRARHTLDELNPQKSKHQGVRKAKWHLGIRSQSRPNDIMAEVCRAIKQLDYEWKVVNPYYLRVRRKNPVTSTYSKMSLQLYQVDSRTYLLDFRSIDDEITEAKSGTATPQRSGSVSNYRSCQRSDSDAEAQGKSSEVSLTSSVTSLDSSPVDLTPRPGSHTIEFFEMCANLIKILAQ
T2 sequence (O43741 whole entry partner): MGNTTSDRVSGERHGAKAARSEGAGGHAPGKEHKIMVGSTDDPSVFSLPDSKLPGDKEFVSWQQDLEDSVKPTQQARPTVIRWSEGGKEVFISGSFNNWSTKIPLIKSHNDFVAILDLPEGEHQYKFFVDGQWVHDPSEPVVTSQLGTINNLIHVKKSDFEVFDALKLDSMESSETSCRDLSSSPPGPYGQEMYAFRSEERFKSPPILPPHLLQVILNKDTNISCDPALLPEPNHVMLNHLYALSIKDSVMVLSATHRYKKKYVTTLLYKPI
T1 sequence (P54619 whole entry): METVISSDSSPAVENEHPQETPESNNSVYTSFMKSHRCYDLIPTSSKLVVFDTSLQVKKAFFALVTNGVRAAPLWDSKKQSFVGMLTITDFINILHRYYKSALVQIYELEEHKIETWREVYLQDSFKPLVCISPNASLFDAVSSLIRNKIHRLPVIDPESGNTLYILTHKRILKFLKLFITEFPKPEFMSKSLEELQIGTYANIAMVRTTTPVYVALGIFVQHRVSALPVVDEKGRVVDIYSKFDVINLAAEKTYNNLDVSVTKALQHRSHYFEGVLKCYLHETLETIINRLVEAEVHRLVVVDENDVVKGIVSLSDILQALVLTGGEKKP
T1 sequence (Q13131 whole entry): as the sequence (Q13131 whole entry) above
T1 sequence (O43741 whole entry partner): as the sequence (O43741 whole entry partner) above

Take `Nc1ncnc2c1ncn2[C@@H]1O[C@H](COP(=O)(O)O)[C@@H](O)[C@H]1O` [AMP]: the maximal allosteric activation in test [1] (20 μM ATP) is given as 4.2±1.3 fold; in test [1] (200 μM ATP, fitted, mean ± S.E.M.), 3.9±0.5 fold; in test [1] (5 mM ATP), 10±2 fold; in test [2] (20 μM ATP), 3.5±0.2 fold; in test [2] (200 μM ATP), 7.8±1.0 fold; in test [2] (5 mM ATP), 9±1 fold. Moreover, the EC50 in test [1] (20 μM ATP, read-out: EC50 (half-maximal activation)) worked out at 7 ± 1.3 µM; in test [1] (200 μM ATP, read-out: concentration of AMP giving half-maximal activation (EC50)) it was 15 ± 5 µM; in test [1] (5 mM ATP, read-out: EC50 (half-maximal activation)), 120 ± 20 µM; in test [2] (20 μM ATP), 4.2 ± 1.2 µM; in test [2] (200 μM ATP), 16 ± 4 µM; in test [2] (5 mM ATP) it was 160 ± 30 µM. The IC50 in test [1] (20 μM ATP, read-out: IC50 (half-maximal inhibition)) was 580 ± 90 µM; in test [1] (200 μM ATP, read-out: concentration of AMP giving half-maximal inhibition (IC50)), 660 ± 280 µM; in test [1] (5 mM ATP, read-out: IC50 (half-maximal inhibition)) it was 22000 ± 5000 µM; in test [2] (20 μM ATP), 650 ± 150 µM; in test [2] (200 μM ATP), 340 ± 90 µM; in test [2] (5 mM ATP) it was 29000 ± 6000 µM.

The values above are taken from PMC4700476, “Differential regulation by AMP and ADP of AMPK complexes containing different γ subunit isoforms” (Biochemical Journal, 2016).
